Assay results published in the CheMixHub viscosity set.

Assay: xn = mol fraction of the nth substance listed
Conditions: 101 kPa

C=CC(=O)OCC + C1CCOC1
viscosity [mPa·s]
Conditions	293.15 K	298.15 K	303.15 K	308.15 K	313.15 K	318.15 K
x2 = 0.0825	0.5547	0.5211	0.4896	0.4554	0.4158	0.3758
x2 = 0.167	0.5422	0.5102	0.4802	0.4474	0.4096	0.3711
x2 = 0.2302	0.5338	0.503	0.4739	0.4421	0.4055	0.3682
x2 = 0.316	0.5237	0.4945	0.4666	0.436	0.401	0.3651
x2 = 0.3892	0.5163	0.4883	0.4613	0.4317	0.3978	0.3631
x2 = 0.4603	0.5102	0.4832	0.457	0.4283	0.3954	0.3617
x2 = 0.5286	0.5051	0.4791	0.4535	0.4256	0.3938	0.361
x2 = 0.5947	0.5011	0.4759	0.4509	0.4236	0.3926	0.3607
x2 = 0.6605	0.4979	0.4734	0.4489	0.4222	0.392	0.3609
x2 = 0.7283	0.4954	0.4716	0.4475	0.4213	0.3919	0.3615
x2 = 0.7874	0.4938	0.4707	0.4468	0.421	0.3922	0.3624
x2 = 0.8689	0.4927	0.4702	0.4466	0.4212	0.3931	0.3642
x2 = 0.936	0.4926	0.4705	0.4471	0.4219	0.3944	0.3661
